How the values were obtained:
PDGF-R = PDGF-R Assay (cellular ELISA, U1242 cells); type: cell-based; design: concentration or dose not given beside the values; settings: protocol P.119
How it was run: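 U1242 cells seeded in 0.5% serum, serum-starved, then exposed to compound for 2 hr at 37°C before 5–10 min ligand stimulation and lysis in HNTG. Lysate captured on receptor-antibody-coated plates; phosphotyrosine detected with polyclonal anti-pTyr, goat anti-rabbit IgG and ABTS/H2O2, A410 (ref 630 nm), versus untreated cells.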

EGFR = biological target: T1, EGFR (Homo sapiens, UniProt P00533); test: Biochemical EGFR Assay; design: concentration or dose not given beside the values; settings: protocol P.167
T1 construct: endogenous in cells; host or cells: A431 cells (lysate, captured with SUMO1 anti-EGFR antibody)
How it was run: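 EGFR from A431 lysate was captured on anti-EGFR-coated wells and preincubated 30 min with compound (diluted 1:10 in TBS) at room temperature. After ATP/MnCl2 phosphorylation for 5 min, the reaction was stopped with EDTA. Phosphotyrosine was detected by ELISA (anti-phosphotyrosine, peroxidase conjugate, ABTS) at 410 nm.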

T1 sequence (P00533 25-1210): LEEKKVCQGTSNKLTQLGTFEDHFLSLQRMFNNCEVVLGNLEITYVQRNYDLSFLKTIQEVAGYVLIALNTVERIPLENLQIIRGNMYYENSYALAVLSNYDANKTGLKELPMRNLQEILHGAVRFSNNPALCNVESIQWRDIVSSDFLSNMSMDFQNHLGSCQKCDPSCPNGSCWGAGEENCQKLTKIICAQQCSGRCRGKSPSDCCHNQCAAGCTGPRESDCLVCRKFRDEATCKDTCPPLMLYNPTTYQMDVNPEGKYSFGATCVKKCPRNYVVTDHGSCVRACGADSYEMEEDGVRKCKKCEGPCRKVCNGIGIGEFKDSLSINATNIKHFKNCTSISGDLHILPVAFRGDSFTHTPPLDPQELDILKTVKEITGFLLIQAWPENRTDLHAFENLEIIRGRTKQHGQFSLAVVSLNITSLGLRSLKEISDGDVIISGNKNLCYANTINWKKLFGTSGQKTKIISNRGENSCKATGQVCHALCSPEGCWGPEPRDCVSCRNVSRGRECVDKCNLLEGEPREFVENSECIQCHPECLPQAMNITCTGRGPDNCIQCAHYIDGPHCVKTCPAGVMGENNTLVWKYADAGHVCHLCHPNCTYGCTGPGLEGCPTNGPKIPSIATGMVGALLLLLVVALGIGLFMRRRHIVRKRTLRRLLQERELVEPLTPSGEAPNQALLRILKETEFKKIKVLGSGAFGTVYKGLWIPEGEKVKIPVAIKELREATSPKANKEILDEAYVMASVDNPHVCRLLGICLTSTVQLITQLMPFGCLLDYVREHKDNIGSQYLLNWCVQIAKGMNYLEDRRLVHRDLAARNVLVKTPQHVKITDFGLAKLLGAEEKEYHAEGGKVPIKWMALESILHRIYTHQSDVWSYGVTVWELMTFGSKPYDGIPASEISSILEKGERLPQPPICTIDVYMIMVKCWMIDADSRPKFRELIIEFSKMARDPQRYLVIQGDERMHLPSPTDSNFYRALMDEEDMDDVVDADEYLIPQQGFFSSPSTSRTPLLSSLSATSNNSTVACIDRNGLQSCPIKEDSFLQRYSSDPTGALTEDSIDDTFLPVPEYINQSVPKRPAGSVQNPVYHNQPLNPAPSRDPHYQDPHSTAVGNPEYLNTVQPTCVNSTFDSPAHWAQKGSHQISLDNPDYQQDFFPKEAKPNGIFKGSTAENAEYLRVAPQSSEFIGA

Structure (SMILES)	PDGF Kinase % Inhibition (P.119) (PDGF-R)	Biochem EGFR % Inhibition (P.167) (EGFR)
Cc1c(Br)cc(Br)c2c1C(=Cc1cccc(F)c1)C(=O)N2 [10736/H07]	−21.9%	52.2%
Cc1c(Br)cc(Br)c2c1C(=Cc1ccccc1F)C(=O)N2 [10736/H08]	−17.9%	−20.2%
CCc1ccc(C=C2C(=O)Nc3c(Br)cc(Br)c(C)c32)cc1 [10736/H09]	−14.8%	35.7%
COc1cccc(C=C2C(=O)Nc3c(Br)cc(Br)c(C)c32)c1 [10736/H10]	−21.0%	45.6%
Cc1c(Br)cc(Br)c2c1C(=Cc1ccccc1Cl)C(=O)N2 [10736/H11]	−12.7%	11.1%
CCOc1ccc(C=C2C(=O)Nc3c(Br)cc(Br)cc32)cc1 [10737/A02]	6.6%	37.3%
Cc1ccc(C=C2C(=O)Nc3c(Br)cc(Br)cc32)c(C)c1 [10737/A03]	38.8%	12.8%
O=C1Nc2c(Br)cc(Br)cc2C1=Cc1cc(F)ccc1F [10737/A04]	23.7%	29.4%
O=C1Nc2c(Br)cc(Br)cc2C1=Cc1cccc(F)c1F [10737/A05]	21.7%	26.4%
COc1ccc(C=C2C(=O)Nc3c(Br)cc(Br)cc32)cc1F [10737/A06]	15.7%	37.3%
Cc1ccc(C)c(C=C2C(=O)Nc3c(Br)cc(Br)cc32)c1 [10737/A07]	7.0%	25.3%
O=C1Nc2c(Br)cc(Br)cc2C1=Cc1ccc2ccccc2c1 [10737/A08]	1.0%	35.8%
O=C1Nc2c(Br)cc(Br)cc2C1=Cc1ccc(Oc2ccccc2)cc1 [10737/A09]	18.9%	36.0%
CC(C)(C)c1ccc(Oc2cccc(C=C3C(=O)Nc4c(Br)cc(Br)cc43)c2)cc1 [10737/A10]	−3.8%	10.9%
O=C1Nc2c(Br)cc(Br)cc2C1=Cc1cccc(Oc2cccc(C(F)(F)F)c2)c1 [10737/A11]	28.1%	10.8%
CCOc1ccc(C=C2C(=O)Nc3ccc(I)cc32)cc1 [10737/B02]	−28.9%	−34.0%
Cc1ccc(C=C2C(=O)Nc3ccc(I)cc32)c(C)c1 [10737/B03]	29.7%	−34.9%
O=C1Nc2ccc(I)cc2C1=Cc1cc(F)ccc1F [10737/B04]	12.5%	7.1%
O=C1Nc2ccc(I)cc2C1=Cc1cccc(F)c1F [10737/B05]	19.7%	17.4%
COc1ccc(C=C2C(=O)Nc3ccc(I)cc32)cc1F [10737/B06]	20.1%	22.5%
Cc1ccc(C)c(C=C2C(=O)Nc3ccc(I)cc32)c1 [10737/B07]	18.9%	18.1%
O=C1Nc2ccc(I)cc2C1=Cc1ccc2ccccc2c1 [10737/B08]	−0.6%	15.4%
O=C1Nc2ccc(I)cc2C1=Cc1ccc(Oc2ccccc2)cc1 [10737/B09]	−14.1%	26.4%

Structure (SMILES)	PDGF Kinase % Inhibition (P.119) (PDGF-R)	Biochem EGFR % Inhibition (P.167) (EGFR)
CC(C)(C)c1ccc(Oc2cccc(C=C3C(=O)Nc4ccc(I)cc43)c2)cc1 [10737/B10]	−10.2%	−7.3%
O=C1Nc2ccc(I)cc2C1=Cc1cccc(Oc2cccc(C(F)(F)F)c2)c1 [10737/B11]	−10.2%	−9.9%
CCOc1ccc(C=C2C(=O)Nc3ccc(Br)c(C)c32)cc1 [10737/C02]	−2.2%	−22.0%
Cc1ccc(C=C2C(=O)Nc3ccc(Br)c(C)c32)c(C)c1 [10737/C03]	7.0%	−0.7%
Cc1c(Br)ccc2c1C(=Cc1cc(F)ccc1F)C(=O)N2 [10737/C04]	25.7%	14.4%
Cc1c(Br)ccc2c1C(=Cc1cccc(F)c1F)C(=O)N2 [10737/C05]	12.5%	13.3%
COc1ccc(C=C2C(=O)Nc3ccc(Br)c(C)c32)cc1F [10737/C06]	7.8%	29.0%
Cc1ccc(C)c(C=C2C(=O)Nc3ccc(Br)c(C)c32)c1 [10737/C07]	8.6%	27.9%
Cc1c(Br)ccc2c1C(=Cc1ccc3ccccc3c1)C(=O)N2 [10737/C08]	14.5%	16.3%
Cc1c(Br)ccc2c1C(=Cc1ccc(Oc3ccccc3)cc1)C(=O)N2 [10737/C09]	−1.8%	13.0%
Cc1c(Br)ccc2c1C(=Cc1cccc(Oc3ccc(C(C)(C)C)cc3)c1)C(=O)N2 [10737/C10]	6.6%	−15.6%
Cc1c(Br)ccc2c1C(=Cc1cccc(Oc3cccc(C(F)(F)F)c3)c1)C(=O)N2 [10737/C11]	32.5%	−5.6%
CCOc1ccc(C=C2C(=O)Nc3ccc(S(=O)(=O)NC)cc32)cc1 [10737/D02]	−4.2%	−14.7%
CNS(=O)(=O)c1ccc2c(c1)C(=Cc1ccc(C)cc1C)C(=O)N2 [10737/D03]	−5.8%	−21.5%
CNS(=O)(=O)c1ccc2c(c1)C(=Cc1cc(F)ccc1F)C(=O)N2 [10737/D04]	9.4%	−27.7%
CNS(=O)(=O)c1ccc2c(c1)C(=Cc1cccc(F)c1F)C(=O)N2 [10737/D05]	2.2%	17.9%
CNS(=O)(=O)c1ccc2c(c1)C(=Cc1ccc(OC)c(F)c1)C(=O)N2 [10737/D06]	−10.2%	33.8%
CNS(=O)(=O)c1ccc2c(c1)C(=Cc1cc(C)ccc1C)C(=O)N2 [10737/D07]	−5.0%	16.1%
CNS(=O)(=O)c1ccc2c(c1)C(=Cc1ccc3ccccc3c1)C(=O)N2 [10737/D08]	3.0%	5.6%
CNS(=O)(=O)c1ccc2c(c1)C(=Cc1ccc(Oc3ccccc3)cc1)C(=O)N2 [10737/D09]	1.0%	13.7%
CNS(=O)(=O)c1ccc2c(c1)C(=Cc1cccc(Oc3ccc(C(C)(C)C)cc3)c1)C(=O)N2 [10737/D10]	7.0%	−15.0%
CNS(=O)(=O)c1ccc2c(c1)C(=Cc1cccc(Oc3cccc(C(F)(F)F)c3)c1)C(=O)N2 [10737/D11]	5.4%	−2.3%

Reference: patent US20020026053A1, “Novel 3-(substituted) -2- indolinones compounds and use thereof as inhibitors of protein kinase activity” (priority 1997, published 2002)
